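Values below derive from 48-hour exposures of cells grown in 96-well plates, with endpoints linearly interpolated between the two concentrations bracketing the appropriate inhibition level. At the GI50, growth is halved. TGI denotes the concentration required for complete inhibition of growth.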
Legend:
Experiment in all cases: NCI-60 cell line screen, 48 h
SNB-75 CNS = tested on: SNB-75 CNS
SK-OV-3 ovarian = tested on: SK-OV-3 ovarian
RXF 393 renal = tested on: RXF 393 renal
SW-620 colon = tested on: SW-620 colon
A498 renal = tested on: A498 renal
NCI/ADR-RES ovarian = tested on: NCI/ADR-RES ovarian
HT29 colon = tested on: HT29 colon
IGROV1 ovarian = tested on: IGROV1 ovarian
TK-10 renal = tested on: TK-10 renal
EKVX NSCLC = tested on: EKVX NSCLC

SMILES	GI50 (SNB-75 CNS)	TGI (SNB-75 CNS)	GI50 (SK-OV-3 ovarian)	TGI (SK-OV-3 ovarian)	GI50 (RXF 393 renal)	TGI (RXF 393 renal)	GI50 (SW-620 colon)	TGI (SW-620 colon)	GI50 (A498 renal)	TGI (A498 renal)	GI50 (NCI/ADR-RES ovarian)	TGI (NCI/ADR-RES ovarian)	GI50 (HT29 colon)	TGI (HT29 colon)	GI50 (IGROV1 ovarian)	TGI (IGROV1 ovarian)	GI50 (TK-10 renal)	TGI (TK-10 renal)	GI50 (EKVX NSCLC)	TGI (EKVX NSCLC)
Cc1cccc2c3c(sc12)C(c1ccc(Cl)cc1)C(C#N)=C(N)O3 (stereo not given)	214 nM	710 nM	3590 nM	27200 nM	215 nM	649 nM	416 nM	11600 nM	211 nM	1200 nM	302 nM	2460 nM	394 nM	6120 nM	426 nM	11800 nM	5920 nM	21700 nM	570 nM	17800 nM
C[C@]12CC[C@@H]3c4cc(OC(F)F)c(OS(N)(=O)=O)cc4CC[C@H]3[C@@H]1CC[C@@H]2O	193 nM	665 nM	683 nM	76900 nM	139 nM	589 nM	407 nM	28800 nM	199 nM	860 nM	601 nM	16700 nM	371 nM	13900 nM	646 nM	24900 nM	17000 nM	> 77200 nM	709 nM	54800 nM
O=C(CC1(O)C(=O)N(Cc2ccccc2)c2ccccc21)c1ccc(C(=O)NCC2CCC3(CC2)OOC2(CCCCC2)OO3)cc1 (stereo not given)	1580 nM	3440 nM	6570 nM	> 51100 nM	705 nM	1980 nM	3560 nM	> 41500 nM	2420 nM	7320 nM	1180 nM	3470 nM	1720 nM	3820 nM	408 nM	1620 nM	835 nM	2240 nM	659 nM	2040 nM
Cc1cc(C)nc(SC2=C(Nc3cc(Cl)ccc3O)C(=O)N(Cc3ccccc3)C2=O)n1	21800 nM	104000 nM	> 160000 nM	> 160000 nM	4030 nM	17200 nM	53000 nM	> 160000 nM	> 160000 nM	> 160000 nM	> 160000 nM	> 160000 nM	33800 nM	65000 nM	25300 nM	88600 nM	53900 nM	> 160000 nM	57700 nM	> 160000 nM
c1ccc2cc(-c3n(Cc4ccc5ccccc5n4)c4ccccc4[n+]3Cc3ccc4ccccc4n3)ccc2c1	190 nM	746 nM	268 nM	912 nM	245 nM	1240 nM	346 nM	1420 nM	121 nM	801 nM	6600 nM	26400 nM	256 nM	1190 nM	290 nM	1280 nM	413 nM	1830 nM	517 nM	2080 nM
Cc1cc(N(CCCNc2ccnc3cc(Cl)ccc23)Cc2ccco2)nc(N2CCN(C)CC2)n1	1290 nM	5560 nM	5990 nM	31200 nM	1790 nM	3550 nM	2820 nM	12200 nM	9150 nM	45500 nM	4130 nM	18800 nM	2730 nM	11000 nM	2390 nM	12300 nM	2080 nM	4820 nM	4990 nM	22000 nM
O=[N+]([O-])c1ccc(N2CCOCC2)c2c1no[n+]2[O-]	822 nM	5560 nM	1430 nM	4680 nM	1490 nM	4010 nM	1180 nM	2480 nM	1170 nM	3200 nM	1540 nM	12300 nM	1040 nM	2800 nM	1300 nM	4150 nM	3850 nM	16700 nM	1930 nM	6720 nM

Reference: PubChem BioAssay (NCI)
